Experimental data taken from US20040167189A1, “Materials and methods for inhibiting Wip1” (The Government of the U.S.A., as Represented by the …, priority 2002, published 2004).
Several values for one entry are separate records, joined by “and”; a condition that tells them apart may be missing. Identical values can stand only once. Like-named read-outs stand apart in the source and are kept apart here.

How the values were obtained:
recombinant Wip1 = recombinant Wip1 (Homo sapiens, UniProt O15297); details: for relative effectiveness as Wip1 inhibitor (in words): at the concentration of 0.25 μM;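 on all read-outs here: recombinant His-tagged Wip1 dephosphorylating a phosphoserine peptide for 1 h at 30 °C, read by fluorescence quench (ex 560, em 590 nm), signal rising with dephosphorylation, DMSO-only reactions as control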
Text: Phosphatase activity of Wip1 was monitored with IQ™ Phosphatase Assay Kit (Pierce, Rockford, Ill.). […] At the end of phosphatase reaction, the labeled peptide population contains a mixture of phosphorylated and nonphosphorylated peptide species. The iron-containing compound binds specifically to the phosphorylated peptide present and its fluorescence is quenched. The observed relative fluorescence units increase in proportion to the extent of dephosphorylation of the phosphopeptide. The standard phosphatase assay was performed by incubating 0.2 μg recombinant Wip1 in the buffer, containing 20 mM MOPS, pH 7.0, 20 mM MgCl2, and 30 μM of phosphoserine peptide substrate (LRRApSLG) at 30° C. for 1 hour. The reaction was terminated by addition of 60 μl IQ™ Working Solution. Fluorescent intensity was measured on the Fluorometer at 560/590 ex/em. Compounds (2 ml) from a chemical library of potential Wip1 inhibitors dissolved in 50% DMSO were added to fmal concentration of 10, 1, 0.5, or 0.2 μM. Control reactions contained only 6% DMSO.
Wip1 activity was measured in the presence of 1990 chemical compounds, 10 μM final concentration each.

[1] = biological target: T1, phosphoserine peptide substrate (LRRApSLG)
T1 chain: LRRASLG

[2] = compound at 0.25 μm, DMSO control 740
[3] = compound at 0.5 μm, DMSO control 740
[4] = compound at 1 μm, DMSO control 725
[5] = compound at 10 μm, DMSO control 1400

| Molecule | Wip1 Activity (recombinant Wip1; [2]) [light units @ 590 nm] | Wip1 Activity (recombinant Wip1; [3]) [light units @ 590 nm] | Wip1 Activity (recombinant Wip1; [4]) [light units @ 590 nm] | Wip1 Activity (recombinant Wip1; [5]) [light units @ 590 nm] | other results |
| --- | --- | --- | --- | --- | --- |
| O=[N+]([O-])c1ccc(S(=O)(=O)Cc2ccccc2)c2nonc12 [Compound A] | 745 | 725 | 250 | 0 | – |
| O=C(O)C=Cc1ccc[c]([Sb](=[O])([OH])[OH])c1 [Compound B] | 740 | 723 | 575 | 0 | – |
| O=C1C(Cl)=C(Nc2ccc(S(=O)(=O)Nc3ccccn3)cc2)C(=O)c2ccccc21 [Compound N] | – | – | – | 0 | Wip1 Activity (recombinant Wip1): 645 light units @ 590 nm and 710 light units @ 590 nm and 550 light units @ 590 nm |
| Nc1nc([S][Hg][c]2cc([N+](=O)[O-])ccc2O)c2ncn(C3OC(CO)C(O)C3O)c2n1 (centres unmarked) [Compound H] | 675 | 690 | 225 | 0 | – |
| O=C(O)c1cc[c]([Hg][S]c2ncnc3nc[nH]c23)cc1 [Compound K] | 630 | 680 | 300 | 0 | – |
| CN(C)CN1CSC(=S)N(CN(C)C)C1 [Compound D] | 750 | 740 | 595 | 0 | – |
| CC1=C(Br)C(=O)C(C)=C(Br)C1=O [Compound L] | 375 | 220 | 60 | 0 | activity of Wip1 in the presence of compound (in words) (recombinant Wip1; 1 μM final concentration): nearly not detectable; Phosphatase Activity (Wip1) (recombinant Wip1; Compound L at 1 μM final concentration, DMSO control 500): 5 light units @ 590 nm; relative effectiveness as Wip1 inhibitor (in words) (recombinant Wip1): most effective inhibitors; decrease of the activity of PP2A (phosphatase PP2A; 1 μM final concentration): 5%; Phosphatase Activity (PP2A) (phosphatase PP2A; Compound L at 1 μM final concentration, DMSO control 760): 690 light units @ 590 nm |
| Nc1nc(Sc2ccc([N+](=O)[O-])c3nonc23)c2nc[nH]c2n1 [Compound C] | 745 | 750 | 610 | 0 | – |
| O=C(O)c1c(Br)c(Br)c(Br)c(Br)c1C1c2ccc(O)cc2Oc2cc(O)ccc21 [Compound I] | 625 | 710 | 250 | 0 | – |
| CC(=NN=C([S-])SCc1ccccc1)c1ccccn1.[Cl-].[Cu+2] [Compound F] | 740 | 695 | 100 | 0 | – |
| Nc1cc[c]([Hg][S]c2nc(N)nc3c2ncn3C2OC(CO)C(O)C2O)cc1 (centres unmarked) [Compound M] | 525 | 400 | 145 | 0 | relative effectiveness as Wip1 inhibitor (in words) (recombinant Wip1): most effective inhibitors |
| recombinant full-size human Wip1 enzyme with His-Tag on the NH2 terminus (protein) MAGLYSLGVSVFSDQGGRKYMEDVTQIVVEPEPTAEEKPSPRRSLSQPLPPRPSPAALPGGEVSGKGPAVAAREARDPLPDAGASPAPSRCCRRRSSVAFFAVCDGHGGREAAQFAREHLWGFIKKQKGFTSSEPAKVCAAIRKGFLACHLAMWKKLAEWPKTMTGLPSTSGTTASVVIIRGMKMYVAHVGDSGVVLGIQDDPKDDFVRAVEVTQDHKPELPKERERIEGLGGSVMNKSGVNRVVWKRPRLTHNGPVRRSTVIDQIPFLAVARALGDLWSYDFFSGEFVVSPEPDTSVHTLDPQKHKYIILGSDGLWNMIPPQDAISMCQDQEEKKYLMGEHGQSCAKMLVNRALGRWRQRMLRADNTSAIVICISPEVDNQGNFTNEDELYLNLTDSPSYNSQETCVMTPSPCSTPPVKSLEEDPWPRVNSKDHIPALVRSNAFSENFLEVSAEIARENVQGVVIPSKDPEPLEENCAKALTLRIHDSLNNSLPIGLVPTNSTNTVMDQKNLKMSTPGQMKAQEIERTPPTNFKRTLEESNSGPLMKKHRRNGLSRSSGAQPASLPTTSQRKNSVKLTMRRRLRGQKKIGNPLLHQHRKTVCVC | – | – | – | – | Phosphatase Activity (light units @ 590 nm), DMSO control (light units @ 590 nm) [1]: 500; Wip1 Activity (light units @ 590 nm), DMSO control (light units @ 590 nm) [1]: 1400 and 725 and 740 |
